The source of these data is patent US7973011B2, “Blockade of gamma-secretase activity to promote myelination by oligodendrocytes” (The Board of Trustees of the Leland Stanford Junior …, priority 2006, dated 2011).

In assay [1] the target is T1, γ-secretase (Homo sapiens, UniProt P49768). The following applies: read-out: In cells; cited from earlier work.
Assay [2] addresses T1, γ-secretase. Conditions: read-out: Cell-free; cited from earlier work.
Another assay has as its target γ-secretase active site (Homo sapiens, UniProt P49768). Conditions: cited from earlier work.
For assay [3], the system named is oligodendrocytes in OPC-RGC reaggregate cocultures. Kind of assay: OPC-RGC reaggregate coculture myelination (MBP/NG2 immunostaining). Type of assay: cell-based, rat. As for the experimental part:
Purification of RGCs. Retinal ganglion cells (RGCs) were purified to >99.5% homogeneity from two- to three-litters of 5-day-old (P5) rat retinae by immunopanning as previously described. Briefly, retinae were digested with papain at 37° C. Following gentle trituration, cells were resuspended in a panning buffer containing insulin (5 μg/ml) and then incubated at room temperature with rabbit anti-macrophage antibodies. Retinal cells were incubated at room temperature sequentially on three immunopanning dishes: two coated with anti-rabbit secondary antibodies (to negatively select macrophages) and the third with T11D7 anti-Thy1 mAb. RGCs were released from the final panning dish with trypsin (Sigma).
To produce reaggregates, RGCs were plated at high density (>1,000 cells/μl) in 400 μl RGC growth medium in wells an 8-well chamber-slide (Nunc) coated with a surface that is not strongly adherent for RGCs (Permanox). One- to three-hours after plating, RGCs were resuspended gently to promote interaction and reaggregation, and this was repeated the following day. Following two days of culture at high density, reaggregates were collected and allowed to settle to separate them from dead RGCs, non-aggregated cells, and small reaggregates (<10 cells). […]

Assay [4] concerns Notch1f/f OPCs on RGC reaggregates. As to the kind of experiment: Myelination by floxxed Notch1 OPCs (AdCre/AdEmpty) cocultured with RGC reaggregates. Conditions: 1 μM DAPT, six days of coculture, with or without glial Notch1. Type of assay: cell-based, mouse. The protocol:
FIG. 5. […] (A-C) Infection of OPCs from floxxed Notch1 mice (Notch1^f/f) with a recombinant adenovirus for expression of Cre recombinase (AdCre) results in rapid reduction of Notch1 protein. Notch1^f/f-OPCs, purified by immunopanning with anti-PDGFRα, were cultured for 2 days prior to infection for 24 hours with AdCre or a control virus (AdEmpty) at a multiplicity of infection of 10. The next day, cells were re-plated on RGC reaggregate cultures and on coverslips for analysis of Notch1 knockout, which was assessed by immunostaining (a,b) and Western blot analysis 24 hours later (c).
Conditional knockout cells and infection with AdCre. OPCs were purified from P9 Notch1 conditional knockout (gift of A. Rosenthal, Genentech) and presenilin double conditional knockout (gift of Jie Shen, Brigham and Women's hospital) mouse brains by a slight modification of the panning protocol for rat cells as described previously. The first panning dish was coated with mouse anti-mouse Thy1.2 (Serotec) rather than Ran-2. Mouse OPCs were plated on PDL-coated flasks in defined proliferation medium (DMEM supplemented with B27, insulin, 10 ng/ml PDGF, 1 ng/ml NT3, 10 ng/ml CNTF, and forskolin) for 2 days and then passaged onto PDL-coated tissue culture plates at a density of 1 million cells per plate. […]

Assay [5] concerns dorsal root ganglion (DRG) neurons and oligodendrocytes. As to the kind of experiment: Myelination of dorsal root ganglion neurons by oligodendrocytes. Type of assay: cell-based.
A further assay addresses PS-1 (Homo sapiens, UniProt P49768). Conditions: cited from earlier work.
In the next assay the target is PS-2 (Homo sapiens, UniProt P49810). Conditions: cited from earlier work.
The next assay addresses gamma-secretase (Homo sapiens, UniProt P49768). Conditions: recombinant APP C100 substrate; cited from earlier work.

“Also recorded” adds a separate entry of the source. Where two headings read alike, the source gives them in different places.

With `C[C@@H](NC(=O)Cc1cc(F)cc(F)c1)C(=O)N[C@H]1N=C(c2ccccc2)c2ccccc2N(C)C1=O` [Compound E], the IC50 is 0.3 nM on γ-secretase [1] and 3 nM on γ-secretase [2]. For the same molecule, the Displacement entry at γ-secretase active site was “YES”.

With `C[C@H](NC(=O)Cc1cc(F)cc(F)c1)C(=O)N[C@H](C(=O)OC(C)(C)C)c1ccccc1` [DAPT], the “proportion of MBP+ oligodendrocytes that formed myelin segments” value in assay [3] (1 μM DAPT, six-day cocultures) was “significantly increased; also recorded: the majority of oligodendrocytes myelinate”. The “proportion of NG2+ OPCs or MBP+ oligodendrocytes” value in [3] (cocultures with DAPT) is listed as “did not consistently alter”. Besides, the “myelination (proportion of cells that myelinate)” value in [4] was “enhances myelination either in the presence (AdEmpty) or absence (AdCre) of glial Notch1”. In addition, the “myelination of DRG neurons by oligodendrocytes” value in assay [5] was “profoundly enhanced myelination”. Also, the figures for the IC50 on γ-secretase [1] and on γ-secretase [2] were 20 nM and 10 nM, respectively. The Displacement result at γ-secretase active site is reported as “YES”. The “competition for the γ-secretase active site in a displacement assay” value on γ-secretase active site is “can compete moderately”. Further, the “inhibition of PS-1” value at PS-1 is reported as “inhibits”. Moreover, on PS-2, the “inhibition of PS-2” value was “inhibits”.

Turning to `CCC(C)C(NC(=O)C(CCCCNC(=O)OC(C)(C)C)NC(=O)OC(C)(C)C)C(=O)NC(CC(C)C)C1CO1` (stereo not drawn) [Epoxide], the IC50 on γ-secretase [1] and on γ-secretase [2] was 20000 nM each time.

Regarding `COC(=O)[C@@H](NC(=O)[C@H](CC(C)C)NC(=O)N(Cc1ccccc1)C[C@@H](O)[C@H](Cc1ccccc1)NC(=O)OC(C)(C)C)C(C)C` [III-31-C], the IC50 on γ-secretase [1] is 200 nM; on γ-secretase [2], 10 nM. For the same molecule, the Displacement result at γ-secretase active site was “YES”.

For the molecule `CSc1ccc(/C=C2/C(C)=C(CC(=O)O)c3cc(F)ccc32)cc1` [Sulindac sulfide], the “inhibition of gamma(42)-secretase activity” value at gamma-secretase was “preferentially inhibits”.

Consider (Z-LL)2-ketone, for which the IC50 on γ-secretase [1] was above 100000 nM; on γ-secretase [2] it was 30000 nM. Moreover, the Displacement result on γ-secretase active site was “YES”.

“Boc-D-Val-Gly-Aib-D-Val-D-Val-D-He-Aib-D-Thr(OBn)-D-Val-Aib-OMe [D-Helical peptide 294]”: the IC50 at γ-secretase [1] is 3000 nM; on γ-secretase [2], 100 nM.
